Source: US20220249597A1, “MIF INHIBITORS AND METHODS OF USE THEREOF” (The Johns Hopkins University, priority 2016, published 2022)

What was measured:
HeLa cells [1] = assay type: cell-based, human; details: DPQ 30 μM
Protocol: FIGS. 21A-21J. FIG. 21. […] Scale bar, 20 μm.
For immunocytochemistry, cells were fixed 4 hours after MNNG or NMDA treatment with 4% paraformaldehyde, permeabilized with 0.05% Triton X-100, and blocked with 3% BSA in PBS. AIF was visualized by Donkey anti-Rabbit Cy3 or donkey anti-rabbit 647. MIF was visualized by donkey anti-mouse cy2 (2 μg/ml), donkey anti-goat Cy2 or donkey anti-goat 647. Immunohistochemistry was performed with an antibody against Flag. Immunofluorescence analysis was carried out with an LSM710 confocal laser scanning microscope (Carl Zeiss) as described (9).

cortical neurons = details: N-Arg 100 μM
Protocol: (H-J) Nuclear translocation of AIF and MIF after NMDA treatment in the presence or absence PARP inhibitor DPQ or nNOS inhibitor nitro-arginine (N-Arg, 100 μM) in cortical neurons, which was determined by subcellular fractionation. Intensity of MIF and AIF signal is shown in I & J. The experiments were replicated in three independent trials. The experiments were replicated in three independent trials. ***P<0.001, one-way ANOVA.
Primary neuronal cultures from cortex were prepared as previously described (9). Briefly, the cortex was dissected and the cells were dissociated by trituration in modified Eagle's medium (MEM), 20% horse serum, 30 mM glucose, and 2 mM L-glutamine after a 10-min digestion in 0.027% trypsin/saline solution (Gibco-BRL). The neurons were plated on 15-mm multiwell plates coated with polyornithine or on coverslips coated with polyornithine. Neurons were maintained in MEM, 10% horse serum, 30 mM glucose, and 2 mM L-glutamine in a 7% CO2 humidified 37° C. incubator. The growth medium was replaced twice per week. In mature cultures, neurons represent 70 to 90% of the total number of cells. […] Parthanatos was induced by either MNNG (Sigma) in HeLa cells or NMDA (Sigma) in neurons. […]

HeLa cells [2] = test: Pulse-field gel electrophoresis assay of MNNG-induced DNA damage in HeLa cells; assay type: cell-based, human; details: DPQ 30 μM; ISO-1 100 μM
Source text: FIGS. 2A-2D. FIG. 2. MIF is a novel nuclease that cleaves genomic DNA.

SMILES: O=C1NCCc2c(OCCCCN3CCCCC3)cccc21 [DPQ, 3,4-dihydro-5[4-(1-piperindinyl)butoxy]-1(2H)-isoquinoline]
- Accumulation of MIF and AIF in the nucleus after MNNG treatment (HeLa cells [1]): prevents accumulation of both MIF and AIF in the nucleus
- Accumulation of MIF and AIF in the nucleus after NMDA administration (cortical neurons): prevents accumulation of both MIF and AIF in the nucleus
- Effect on MNNG induced DNA damage / DNA cleavage (HeLa cells [2]): prevents MNNG induced DNA cleavage
